Test results published in paper PMC11363342 (ACS Central Science, 2024).
Read-outs that look alike come from different tables or passages of the source.

Legend:
in vitro = settings: African green monkey
SARS-CoV-2 [1] = type: cell-based
SARS-CoV-2 [2] = assay: Viral load reduction assay in ALI-PBEC; type: cell-based; settings: 48 hpi
Procedure: Thus, ALI-PBEC cells were infected with SARS-CoV-2 (10^5 PFU per insert; estimated MOI ∼0.1) and treated with compounds on the apical side of the cells for 2 h. For uninfected controls, PBS was used instead of virus. The compounds were also present in the basal medium during the whole experiment until 48 hpi, when samples were harvested. […] (Figure 4D).
ALI-PBEC were pretreated with compound in the basal medium for 3 h. Cells were infected with 100 000 PFU of SARS-CoV-2/Leiden0008 per insert (estimated MOI 0.1) with compounds present in the inoculum. After 2 h at 37 °C on a rocking platform, the inoculum was removed and cells were washed three times with warm PBS. Compounds stayed present in the basal medium until 48 h postinfection. At 48 hpi the viral load was determined by plaque assay on a 200 μL apical wash (PBS incubated on the apical side of the insets for 10 min at 37 °C). For assessing cytotoxicity with the CyQuant LDH cytotoxicity assay (Thermo Fisher Scientific), 10 μL of apical wash was diluted 5 times with 40 μL of PBS. A 25 μL volume of this dilution was added to 25 μL of assay reagent and incubated for 30 min at RT in the dark. The plate was fixed and measured at a wavelength of 490 nm (Envision reader, PerkinElmer). For the activity-based probe labeling, the insets were washed one more time with PBS and processed as described previously.[52] Briefly, cells were lysed with 60 μL of potassium phosphate buffer per insert. A fluorescently labeled probe (JJB383) was diluted in MclIvaine buffer (pH 7) to a 10 μM stock and incubated for 5 min on ice. For labeling of the cell lysate, 10 μL of lysate was added to 10 μL of MclIvaine buffer and 5 μL of probe. The lysate was incubated for 30 min at 37 °C before the addition of 10 μL of Laemmli sample buffer (4×). Samples were heated at 95 °C for 5 min and separated in a 10% SDS-PAGE gel. Fluorescence was measured at a wavelength of 625 nm (Cy5) with a Uvitec Alliance Q9 imager (BioSPX). After imaging, the gels were stained with GelCode Blue stain reagent (Thermo Fisher Scientific) and visualized using a Uvitec Essential V6 system to check for equal loading.

GBA3 = settings: cited from earlier work
SARS-CoV-2 [3] = assay: microbe, parasite or virus in culture; type: cell-based
SARS-CoV-2 [4] = assay: CPE reduction assay on H1299/ACE2 lung epithelial cells; type: cell-based; settings: compared with Vero E6
[5] = tested on: recombinant Mus musculus α-Glu II; assay: Thermal shift assay (SYPRO orange); type: binding; settings: 10 μM Mmα-Glu-II with 50 μM inhibitor; unliganded control 49.9 °C
HCoV-229E = type: cell-based
GBA1 = settings: cited from earlier work
GBA2 = settings: cited from earlier work
SARS-CoV-2 [6] = assay: Plaque reduction assay on H1299/ACE2 cells (time of treatment); type: cell-based; settings: H1299/ACE2; compound 11 at 5 μM
Procedure: To evaluate whether compound 11 has an effect on host proteins (for instance, ACE2) involved in viral entry, we treated monolayers of H1299/ACE2 cells with compound 11 either 48 or 2 h before infection, during infection (0–1 h), or starting from 1 h postinfection (hpi). The cell monolayers were infected with ∼20 PFU of SARS-CoV-2, and after 1 h the inoculum was replaced with an overlay. In one well (Post Infection) the overlay contained compound 11. Remdesivir, a viral RNA synthesis inhibitor, was added to the overlay of another well, as a positive control for blocking virus replication in the cell.
H1299/ACE2 cells were seeded in a 6-well plate at a density of 1.3 × 10^5 cells/well (20% confluency), 96 h prior to infection. […] The monolayers were infected with ∼20 PFU of SARS-CoV-2/Leiden0008. In the postinfection treatment, the compound (or RDV) was added to the Avicel overlay. Cells were incubated for 4 days at 37 °C before fixation and crystal violet staining.

[7] = Severe acute respiratory syndrome coronavirus 2, Vero C1008, Vero E6 cells, SARS-CoV-2/Leiden0002, n = 3, mean ± SEM, read-out: EC50 (μM), SARS-CoV-2 CPE reduction
[8] = Severe acute respiratory syndrome coronavirus 2, Vero C1008, read-out: EC50 (μM), SARS-CoV-2 CPE reduction

Row | SMILES | CC50 at 3 days (in vitro) [µM] | EC50 (SARS-CoV-2 [3]; [7]) [µM] | also measured
1 | CCCCN1C[C@H](O)[C@@H](O)[C@H](O)[C@H]1CO [Compound 1, N-butyl-DNJ, reference compound] | > 200 | 114 ± 10.3 | reduction of infectious progeny production (in words) (SARS-CoV-2 [1]): only minimally; viral load in ALI-PBEC (in words) (SARS-CoV-2 [2]; 100 μM (highest concentration)): only a slight effect; inhibition of GBA3 (GBA3): inhibits; EC50 (SARS-CoV-2 [3]; Vero E6 cells, SARS-CoV-2/Leiden0002, n = 3, mean ± SEM, read-out: EC50 (μM), SARS-CoV-2 CPE reduction): > 100 µM
2 | OC[C@@H]1[C@@H](O)[C@H](O)[C@@H](O)CN1CCCCCOCc1ccc2ccccc2c1 [Compound 2, naphthyl-deoxynojirimycin] | > 200 | 6 ± 0.4 | EC50 values in CPE reduction assay (in words) (SARS-CoV-2 [4]): comparable EC50 values; viral load in ALI-PBEC (in words) (SARS-CoV-2 [2]; 10 and 100 μM): reduced SARS-CoV-2 to similar titers; Tm/°C [5]: 63.5 °C; virus infectivity of HCoV-229E (in words) (HCoV-229E): did not show any reduction in virus infectivity
3 | OC[C@@H]1[C@@H](O)[C@H](O)[C@@H](O)CN1CCCCCOCc1cc2ccccc2c2ccccc12 [Compound 3] | – | 3.25 ± 0.42 | CC50 (in vitro): 50 µM
4 | OC[C@@H]1[C@@H](O)[C@H](O)[C@@H](O)CN1CCCCCOCC1CCCO1 (some centres unmarked) [Compound 4] | > 200 | 51.7 ± 3.37 | –
5 | OC[C@@H]1[C@@H](O)[C@H](O)[C@@H](O)CN1CCCCCOCC12CC3CC(CC(C3)C1)C2 [Compound 5] | 200 | 13.9 ± 8 | –
6 | CCCCCCOCCCCCN1C[C@H](O)[C@@H](O)[C@H](O)[C@H]1CO [Compound 6] | > 200 | 11.8 ± 0.8 | –
7 | CC(C)(C)COCCCCCN1C[C@H](O)[C@@H](O)[C@H](O)[C@H]1CO [Compound 7] | > 200 | 22.7 ± 4.3 | –
8 | OC[C@H]1[C@@H](O)[C@H](O)[C@@H](O)CN1CCCCCOCC12CC3CC(CC(C3)C1)C2 [Compound 8] | > 200 | 104 ± 12.4 | –
9 | OC[C@@H]1[C@@H](O)[C@H](O)[C@@H](O)[C@H]2O[C@@H]12 [Compound 9, 1,6-epi-cyclophellitol] | > 200 | > 200 | inhibition of GBA1 (GBA1): partially inhibit; inhibition of GBA2 (GBA2): partially inhibit
10 | OC[C@@H]1[C@@H](O)[C@H](O)[C@@H](O)[C@H]2N[C@@H]12 [Compound 10, 1,6-epi-cyclophellitol aziridine] | > 200 | 14 ± 3.2 | inhibition of GBA1 (GBA1): partially inhibit; inhibition of GBA2 (GBA2): partially inhibit
11 | CO[C@@H]1[C@@H](O)[C@H](O)[C@@H](CO)[C@@H]2OS(=O)(=O)O[C@H]12 [Compound 12] | > 200 | > 200 | –
12 | CO[C@H]1[C@H](O)[C@@H](CO)[C@@H]2OS(=O)(=O)O[C@@H]2[C@@H]1O [Compound 13] | > 200 | > 200 | –
13 | CO[C@H]1[C@H](O)[C@@H](O)[C@H]2OS(=O)(=O)O[C@H]2[C@@H]1CO [Compound 14] | > 200 | 16.9 ± 2.1 | –
14 | COC[C@@H]1[C@@H](O)[C@H](O)[C@@H](O)[C@H]2OS(=O)(=O)O[C@@H]12 [Compound 15] | > 200 | > 100 | –
15 | CO[C@H]1[C@H]2OS(=O)(=O)O[C@H]2[C@H](CO)[C@@H](O)[C@@H]1OC [Compound 16] | > 200 | > 200 | –
16 | O=S1(=O)N[C@H]2[C@H](CO)[C@@H](O)[C@H](O)[C@@H](O)[C@H]2O1 [Compound 17] | > 200 | 45.3 ± 1.52 | –
17 | O=S1(=O)N[C@@H]2[C@H](O)[C@@H](O)[C@H](O)[C@@H](CO)[C@@H]2O1 [Compound 18] | > 200 | > 100 | –
18 | O=S1(=O)N[C@@H]2[C@H](O)[C@@H](O)[C@H](O)[C@@H](CO)[C@@H]2N1 [Compound 19] | > 200 | > 200 | –
19 | OC[C@H]1C[C@@H]2O[C@@H]2[C@@H](O)[C@@H]1O [Compound 20] | > 200 | 17.7 ± 1.28 | Tm/°C [5]: 64.7 °C
20 | OC[C@H]1C[C@@H]2N[C@@H]2[C@@H](O)[C@@H]1O [Compound 21] | > 200 | – | Tm/°C [5]: 49.5 °C; EC50 (SARS-CoV-2 [3]; [8]): 67.6 ± 14.8 µM
21 | O=S1(=O)O[C@@H]2[C@@H](O)[C@H](O)[C@@H](CO)C[C@@H]2O1 [Compound 22] | > 200 | > 200 | Tm/°C [5]: 51.7 °C
22 | OC[C@H]1C[C@H]2[C@@H]([C@@H](O)[C@@H]1O)N2CCCCCOCc1ccc2ccccc2c1 (some centres unmarked) [Compound 23] | > 200 | – | EC50 (SARS-CoV-2 [3]; [8]): 64.9 ± 0.77 µM
23 | OC[C@H]1C[C@H]2[C@@H]([C@@H](O)[C@@H]1O)N2CCCCCOCc1ccc(-c2ccccc2)cc1 (some centres unmarked) [Compound 24] | 200 | – | EC50 (SARS-CoV-2 [3]; [8]): 28.6 ± 0.21 µM
24 | CCCC(=O)N1[C@@H]2[C@@H](O)[C@H](O)[C@@H](CO)C[C@@H]21 [Compound 25] | > 200 | 22.2 ± 4.12 | –
25 | CCCCN1[C@@H]2[C@@H](O)[C@H](O)[C@@H](CO)C[C@@H]21 (some centres unmarked) [Compound 26] | > 200 | – | EC50 (SARS-CoV-2 [3]; [8]): 91.4 ± 20.6 µM
26 | OC[C@H]1C[C@H]2[C@@H]([C@@H](O)[C@@H]1O)N2CCCCCOCC12CC3CC(CC(C3)C1)C2 (some centres unmarked) [Compound 27] | 100 | – | EC50 (SARS-CoV-2 [3]; [8]): 26.9 ± 1.3 µM
27 | OC[C@H]1C[C@H]2[C@@H]([C@@H](O)[C@@H]1O)N2CCCCCOCc1cccc2ccccc12 (some centres unmarked) [Compound 28] | > 200 | – | EC50 (SARS-CoV-2 [3]; [8]): 56.7 ± 1.38 µM
28 | COCCCCCCCCCN1C[C@H](O)[C@@H](O)[C@H](O)[C@H]1CO [UV-4, reference compound] | – | – | EC50 values in CPE reduction assay (in words) (SARS-CoV-2 [4]): comparable EC50 values
29 | CCC(CC)COC(=O)[C@H](C)N[P@](=O)(OC[C@H]1O[C@@](C#N)(c2ccc3c(N)ncnn23)[C@H](O)[C@@H]1O)Oc1ccccc1 [remdesivir, reference compound] | – | – | plaque formation, treatment after infection (in the overlay) (SARS-CoV-2 [6]): prevented the formation of plaques
